Where two headings read alike, the source gives them in different places.
How the values were obtained:
[1] = molecular target: NDM-1 (Klebsiella pneumoniae, UniProt C7C422); test: Enzyme activity: determination of IC50, fluorescence assay with CCF2-FA substrate; assay type: biochemical; conditions: CCF2-FA 1.25 μM, 2 hours at 25° C., read-out: NDM1 IC50
How it was run: (§1)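 Read-out: fluorescence, ex 405 nm / em 460 nm, after 2 h at 25° C with 1.25 μM CCF2-FA. Buffer 100 mM KH2PO4 pH 7, 0.005% Tween-20, 10 μM ZnSO4; enzyme 1 pM NDM-1, 2 pM IMP-1, 30 pM VIM-1. IC50 by 4-parameter fit.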

[2] = molecular target: IMP-1 (Serratia marcescens, UniProt P52699); test: as above; assay type: biochemical; conditions: CCF2-FA 1.25 μM, 2 hours at 25° C., read-out: IMP1 IC50
How it was run: as §1

[3] = molecular target: VIM-1 (Pseudomonas aeruginosa, UniProt A0A0F7KYQ8); test: as above; assay type: biochemical; conditions: CCF2-FA 1.25 μM, 2 hours at 25° C., read-out: VIM1 IC50
How it was run: as §1

[4] = test system: Escherichia coli expressing NDM-1 (CLB30016); test: Antibiotic potentiation activity: synergistic concentration (MITC95) with imipenem, growth by OD600; assay type: cell-based
How it was run: (§2)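 Strains grown overnight at 35° C, resuspended in saline, diluted 1:100 into 1.1×CAMHB; imipenem at 1 μg/ml or 4 μg/ml with test compound 200 μM to 0.195 μM. Incubated 22 hours to 24 hours at 35° C, OD600 read; MITC95 is lowest compound concentration inhibiting 95% of growth.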

[5] = test system: Serratia marcescens expressing IMP-1 (CL5741); test: as above; assay type: cell-based
How it was run: as §2

[6] = test system: Klebsiella pneumoniae expressing VIM-1 (IHMA599644); test: as above; assay type: cell-based
How it was run: as §2

[7] = E. coli CLB30016 (NDM-1), 95% inhibition of growth
[8] = S. marcescens CL5741 (IMP-1), 95% inhibition of growth
[9] = K. pneumoniae IHMA599644 (VIM-1), 95% inhibition of growth
[10] = 95% inhibition of bacterial growth, strain CLB30016
[11] = 95% inhibition of bacterial growth, strain CL5741
[12] = 95% inhibition of bacterial growth, strain IHMA599644

Sequence of IMP-1 (P52699 19-246, looked up, species assumed): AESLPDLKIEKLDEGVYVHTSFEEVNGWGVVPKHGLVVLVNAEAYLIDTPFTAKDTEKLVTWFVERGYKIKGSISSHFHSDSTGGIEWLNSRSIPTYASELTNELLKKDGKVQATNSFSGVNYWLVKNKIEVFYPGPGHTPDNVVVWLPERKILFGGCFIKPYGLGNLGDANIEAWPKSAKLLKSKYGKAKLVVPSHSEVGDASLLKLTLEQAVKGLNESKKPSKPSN
Sequence of NDM-1 (C7C422 29-270, looked up, species assumed): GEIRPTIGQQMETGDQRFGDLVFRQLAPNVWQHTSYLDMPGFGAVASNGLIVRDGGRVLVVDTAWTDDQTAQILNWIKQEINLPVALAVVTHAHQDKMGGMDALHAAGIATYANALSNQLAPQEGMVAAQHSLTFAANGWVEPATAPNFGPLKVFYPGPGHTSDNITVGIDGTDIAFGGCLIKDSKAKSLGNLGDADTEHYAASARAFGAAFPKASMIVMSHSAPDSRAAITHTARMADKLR

SMILES | IC50 ([1]; NDM-1 enzyme 1 pM) [nM] | IC50 ([2]; IMP-1 enzyme 2 pM) [nM] | IC50 ([3]; VIM-1 enzyme 30 pM) [nM] | NDM1 EC30016 MITC95 [4, 7] [µM] | IMP1 SM5741 MITC95 [5, 8] [µM] | VIM1 KP599644 MITC95 [6, 9] [µM] | IC50 ([1]; enzyme 1 pM) [nM] | IC50 ([2]; enzyme 2 pM) [nM] | IC50 ([3]; enzyme 30 pM) [nM] | NDM1 EC30016 MITC95 [4, 10] [µM] | IMP1 SM5741 MITC95 [5, 11] [µM] | VIM1 KP599644 MITC95 [6, 12] [µM]
CC(C)C[C@H](C(=O)O)[C@H](Cc1ccc(N2CC3(CN(C)C(=O)O3)C2)nc1)c1nnn[nH]1 [Example 337, (2S)-4-methyl-2-[(1S)-2-[6-(7-methyl-6-oxo-5-oxa-2,7-diazaspiro[3.4]oct-2-yl)pyridin-3-yl]-1-(1H-tetrazol-5-yl)ethyl]pentanoic acid] | 62 | 300 | 10 | 9.4 | 18.8 | 75 |  |  |  |  |  | 
Cc1ccc(C[C@H](c2nn[nH]n2)[C@H](CC(C)C)C(=O)O)cc1 [Example 53, (S)-2-((S)-1-(2H-tetrazol-5-yl)-2-(p-tolyl)ethyl)-4-methylpentanoic acid] |  |  |  |  |  |  | 37 | 89 | 5.8 | 18.8 | 4.7 | 75
CCC[C@H](C(=O)O)[C@H](Cc1ccc(Oc2ccc(CN)cc2)nc1)c1nnn[nH]1 [Example 131, (S)-2-((S)-2-(6-(4-(aminomethyl)phenoxy)pyridin-3-yl)-1-(1H-tetrazol-5-yl)ethyl)pentanoic acid] |  |  |  |  |  |  | 12 | 200 | 1.9 | 0.78 | 6.2 | 9.4
CC(C)C[C@H](C(=O)O)[C@H](Cc1ccc(N2CCC(O)C2)nc1)c1nnn[nH]1 (stereo partly drawn) [Example 313, (2S)-2-[(1S)-2-[6-(3-hydroxypyrrolidin-1-yl)pyridin-3-yl]-1-(1H-tetrazol-5-yl)ethyl]-4-methylpentanoic acid] | 75 | 360 | 3.8 | 1.6 | 12.5 | 12.5 |  |  |  |  |  | 
CCC[C@H](C(=O)O)[C@H](Cc1ccc(C2=CCCNC2)cc1)c1nn[nH]n1 [Example 302, (2S)-2-[(1S)-2-[4-(1,2,5,6-tetrahydropyridin-3-yl)phenyl]-1-(2H-tetrazol-5-yl)ethyl]pentanoic acid] | 980 | 3100 | 18 | 38 | 50 | 50 |  |  |  |  |  | 
CCC[C@H](C(=O)O)[C@H](Cc1ccccc1-c1ccc(C(N)=O)cc1)c1nn[nH]n1 [Example 394, (2S)-2-[(1S)-2-(4′-carbamoylbiphenyl-2-yl)-1-(2H-tetrazol-5-yl)ethyl]pentanoic acid] | 2.2 | 450 | 3.9 | 4.7 | 25 | 38 |  |  |  |  |  | 
CC(C)C[C@H](C(=O)O)[C@H](Cc1ccc(NC2CCNC2)nc1)c1nnn[nH]1 (stereo partly drawn) [Example 321, (2S)-4-methyl-2-[(1S)-2-[6-(pyrrolidin-3-ylamino)pyridin-3-yl]-1-(1H-tetrazol-5-yl)ethyl]pentanoic acid] | 440 | 1600 | 5.1 | 3.1 | 18.8 | 18.8 |  |  |  |  |  | 
CC(C)C[C@H](C(=O)O)[C@H](Cc1ccc2ncc(N)cc2c1)c1nnn[nH]1 [Example 119, (S)-2-((S)-2-(3-aminoquinolin-6-yl)-1-(1H-tetrazol-5-yl)ethyl)-4-methylpentanoic acid] |  |  |  |  |  |  | 12 | 52 | 1 | 9.4 | 3.1 | 25
CCC[C@H](C(=O)O)[C@H](Cc1cccc(-c2ccc(N3CCOCC3)nc2)c1)c1nn[nH]n1 [Example 346, (2S)-2-[(1S)-2-[3-(6-morpholin-4-ylpyridin-3-yl)phenyl]-1-(2H-tetrazol-5-yl)ethyl]pentanoic acid] | 21 | 320 | 2.2 | 75 | 6.2 | 38 |  |  |  |  |  | 

Reference: US9839642B2, “Beta-tetrazolyl-propionic acids as metallo-beta-lactamase inhibitors” (priority 2014, dated 2017)
